# Laboratory results taken from patent US6737383B1, “Herbicidal oxadiazolidines” (priority 1999, dated 2004).
# Columns and labels:
# bamyardgrass = assay: Test B flood test barnyardgrass; format: in vivo, Echinochloa crus-galli
# Procedure, shortened: (§1)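 Each value is a visual injury score relative to controls, with 10 meaning complete control and 0 no effect. Evaluation took place twelve to sixteen days after the 2-leaf-stage plants were treated and kept in the greenhouse.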
# purple nutsedge = assay: Test B pre/postemergence purple nutsedge; format: in vivo, Cyperus rotundus
# Procedure, shortened: (§2)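 Herbicidal effect was estimated by eye on a ten-point control scale after plants spent twelve to sixteen days in a greenhouse following soil or foliar treatment. Foliar sprays targeted plants at one to four leaves; all doses were formulated in a non-phytotoxic solvent with surfactant.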
# surinam grass = assay: Test B pre/postemergence surinam grass; format: in vivo, Brachiaria decumbens
# Procedure, shortened: as §2
# morningglory = assay: Test B pre/postemergence morningglory; format: in vivo, Ipomoea hederacea
# Procedure, shortened: as §2
# pigweed = assay: Test B pre/postemergence pigweed; format: in vivo, Amaranthus retroflexus
# Procedure, shortened: as §2
# wild oat = assay: Test B pre/postemergence wild oat; format: in vivo, Avena fatua
# Procedure, shortened: as §2
# sugar beet = assay: Test B pre/postemergence sugar beet; format: in vivo, Beta vulgaris
# Procedure, shortened: as §2
# cocklebur = assay: Test B pre/postemergence cocklebur; format: in vivo, Xanthium strumarium
# Procedure, shortened: as §2
# bedstraw = assay: Test B pre/postemergence bedstraw; format: in vivo, Galium aparine; conditions: Postemergence, Rate 62 g/ha; scale 0 to 10, 0 is no effect, 10 is complete control
# Procedure, shortened: as §2
# corn = assay: Test B pre/postemergence corn; format: in vivo, Zea mays
# Procedure, shortened: as §2
# rape = assay: Test B pre/postemergence rape; format: in vivo, Brassica napus
# Procedure, shortened: as §2
# smallflower flatsedge = assay: Test B flood test smallflower flatsedge; format: in vivo, Cyperus difformis
# Procedure, shortened: as §1
# soybean = assay: Test B pre/postemergence soybean; format: in vivo, Glycine max
# Procedure, shortened: as §2
# velvetleaf = assay: Test B pre/postemergence velvetleaf; format: in vivo, Abutilon theophrasti
# Procedure, shortened: as §2
# blackgrass = assay: Test B pre/postemergence blackgrass; format: in vivo, Alopecurus myosuroides
# Procedure, shortened: as §2
# rice = assay: Test B flood test rice; format: in vivo, Oryza sativa
# Procedure, shortened: as §1
# [1] = Rate 62 g/ha, flood test species, Pre-emergence, visual evaluation after twelve to sixteen days
# [2] = Rate 125 g/ha, under heading Pre-emergence, flood test species, visual evaluation after twelve to sixteen days
# [3] = Rate 250 g/ha, Pre-emergence (flood test species), scale 0 to 10, 0 is no effect, 10 is complete control
# [4] = Rate 500 g/ha, Pre-emergence section of Table B, 0 to 10 scale (0 no effect, 10 complete control)
# [5] = Postemergence, Rate 62 g/ha, scale 0 to 10, 0 is no effect, 10 is complete control
# [6] = Postemergence, Rate 125 g/ha, scale of 0 to 10 where 0 is no effect and 10 is complete control
# [7] = Preemergence, Rate 62 g/ha, scale of 0 to 10 where 0 is no effect and 10 is complete control
# [8] = Preemergence, Rate 125 g/ha, scale of 0 to 10 where 0 is no effect and 10 is complete control
# [9] = Preemergence, Rate 250 g/ha, scale 0 to 10 (0 no effect, 10 complete control)
# [10] = Preemergence, Rate 500 g/ha, scale of 0 to 10 where 0 is no effect and 10 is complete control
# [11] = Rate 500 g/ha, Postemergence, scale 0 to 10, 0 is no effect, 10 is complete control
# [12] = Postemergence, Rate 250 g/ha, scale of 0 to 10, 0 is no effect, 10 is complete control
compound,measurement,setting,value
CC[C@@H](C)n1c(=O)on(C(=O)N(c2ccc(F)cc2F)C(C)C)c1=O [Compound 667],"Plant response rating, Barnyardgrass (0 to 10 scale, 0 is no effect, 10 is complete control)",bamyardgrass; [1],0
same,"Barnyardgrass plant response rating (0 to 10 scale, 0 is no effect, 10 is complete control)",bamyardgrass; [2],0
same,Barnyardgrass plant response rating,bamyardgrass; [3],0
same,Barnyardgrass plant response rating,bamyardgrass; [4],0
same,"Plant response rating, Nutsedge",purple nutsedge; [5],0
same,Nutsedge plant response rating,purple nutsedge; [6],0
same,Nutsedge plant response rating,purple nutsedge; [7],0
same,Nutsedge plant response rating,purple nutsedge; [8],0
same,"Plant response rating, Nutsedge",purple nutsedge; [9],3
same,"Plant response rating, Nutsedge",purple nutsedge; [10],7
same,Nutsedge plant response rating,purple nutsedge; [11],0
same,"Plant response rating, B. signalgrass",surinam grass; [5],0
same,"Plant response rating, B. signalgrass",surinam grass; [6],4
same,B. signalgrass plant response rating,surinam grass; [12],6
same,B. signalgrass plant response rating,surinam grass; [7],3
same,B. signalgrass plant response rating,surinam grass; [8],5
same,"Plant response rating, B. signalgrass",surinam grass; [9],8
same,"Plant response rating, B. signalgrass",surinam grass; [10],8
same,B. signalgrass plant response rating,surinam grass; [11],7
same,"Plant response rating, Morningglory",morningglory; [5],2
same,Morningglory plant response rating,morningglory; [6],2
same,Morningglory plant response rating,morningglory; [12],4
same,Morningglory plant response rating,morningglory; [7],0
same,Morningglory plant response rating,morningglory; [8],1
same,"Plant response rating, Morningglory",morningglory; [9],3
same,"Plant response rating, Morningglory",morningglory; [10],6
same,Morningglory plant response rating,morningglory; [11],6
same,"Plant response rating, Redroot pigweed",pigweed; [5],2
same,Redroot pigweed plant response rating,pigweed; [6],5
same,Redroot pigweed plant response rating,pigweed; [7],10
same,Redroot pigweed plant response rating,pigweed; [8],10
same,"Plant response rating, Redroot pigweed",pigweed; [9],10
same,"Plant response rating, Redroot pigweed",pigweed; [10],10
same,Redroot pigweed plant response rating,pigweed; [11],7
same,"Plant response rating, Wild oats",wild oat; [5],0
same,Wild oats plant response rating,wild oat; [6],4
same,Wild oats plant response rating,wild oat; [7],4
same,Wild oats plant response rating,wild oat; [8],8
same,"Plant response rating, Wild oats",wild oat; [9],8
same,"Plant response rating, Wild oats",wild oat; [10],10
same,Wild oats plant response rating,wild oat; [11],6
same,"Plant response rating, Sugarbeets",sugar beet; [5],0
same,Sugarbeets plant response rating,sugar beet; [6],0
same,Sugarbeets plant response rating,sugar beet; [7],5
same,Sugarbeets plant response rating,sugar beet; [8],7
same,"Plant response rating, Sugarbeets",sugar beet; [9],8
same,"Plant response rating, Sugarbeets",sugar beet; [10],10
same,Sugarbeets plant response rating,sugar beet; [11],3
same,"Plant response rating, Cocklebur",cocklebur; [5],2
same,Cocklebur plant response rating,cocklebur; [6],3
same,Cocklebur plant response rating,cocklebur; [12],4
same,Cocklebur plant response rating,cocklebur; [7],0
same,Cocklebur plant response rating,cocklebur; [8],0
same,"Plant response rating, Cocklebur",cocklebur; [9],0
same,"Plant response rating, Cocklebur",cocklebur; [10],0
same,Cocklebur plant response rating,cocklebur; [11],5
same,"Plant response rating, Bedstraw",bedstraw,0
same,"Plant response rating, Corn",corn; [5],4
same,Corn plant response rating,corn; [6],4
same,Corn plant response rating,corn; [12],4
same,Corn plant response rating,corn; [7],0
same,Corn plant response rating,corn; [8],4
same,"Plant response rating, Corn",corn; [9],7
same,"Plant response rating, Corn",corn; [10],10
same,Corn plant response rating,corn; [11],5
same,"Plant response rating, Rape",rape; [5],0
same,Rape plant response rating,rape; [6],4
same,Rape plant response rating,rape; [7],7
same,Rape plant response rating,rape; [8],8
same,"Plant response rating, Rape",rape; [9],10
same,"Plant response rating, Rape",rape; [10],10
same,Rape plant response rating,rape; [11],6
same,"Plant response rating, S. Flatsedge (0 to 10 scale, 0 is no effect, 10 is complete control)",smallflower flatsedge; [1],0
same,"S. Flatsedge plant response rating (0 to 10 scale, 0 is no effect, 10 is complete control)",smallflower flatsedge; [2],0
same,S. Flatsedge plant response rating,smallflower flatsedge; [3],0
same,S. Flatsedge plant response rating,smallflower flatsedge; [4],0
same,"Plant response rating, Soybean",soybean; [5],2
same,Soybean plant response rating,soybean; [6],3
same,Soybean plant response rating,soybean; [7],0
same,Soybean plant response rating,soybean; [8],3
same,"Plant response rating, Soybean",soybean; [9],6
same,"Plant response rating, Soybean",soybean; [10],7
same,"Plant response rating, Velvetleaf",velvetleaf; [5],5
same,Velvetleaf plant response rating,velvetleaf; [6],6
same,Velvetleaf plant response rating,velvetleaf; [7],6
same,Velvetleaf plant response rating,velvetleaf; [8],6
same,"Plant response rating, Velvetleaf",velvetleaf; [9],8
same,"Plant response rating, Velvetleaf",velvetleaf; [10],10
same,Velvetleaf plant response rating,velvetleaf; [11],8
same,"Plant response rating, Blackgrass",blackgrass; [5],6
same,Blackgrass plant response rating,blackgrass; [6],8
same,Blackgrass plant response rating,blackgrass; [12],8
same,Blackgrass plant response rating,blackgrass; [7],8
same,Blackgrass plant response rating,blackgrass; [8],8
same,"Plant response rating, Blackgrass",blackgrass; [9],8
same,"Plant response rating, Blackgrass",blackgrass; [10],10
same,Blackgrass plant response rating,blackgrass; [11],8
same,"Plant response rating, Rice (0 to 10 scale, 0 is no effect, 10 is complete control)",rice; [1],0
same,"Rice plant response rating (0 to 10 scale, 0 is no effect, 10 is complete control)",rice; [2],0
same,Rice plant response rating,rice; [3],0
same,Rice plant response rating,rice; [4],0
